# Test results as given in PubChem BioAssay (NCI).
#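 Dose response: 5 concentrations. Exposure: 48 h. Format: 96-well plates. Endpoint: linear interpolation; highest concentration if not reached. Here, GI50 denotes the concentration required for 50% inhibition of growth. TGI: concentration producing complete growth inhibition.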
# Legend:
# Assay in all cases: DTP human tumour cell line panel, 48 h
# [1] = test system: RPMI-8226 leukemia
# [2] = test system: HCT-15 colon
# [3] = test system: UACC-257 melanoma
# [4] = test system: OVCAR-8 ovarian
# [5] = test system: U251 CNS
# [6] = test system: T-47D breast
# [7] = test system: SK-MEL-28 melanoma
# [8] = test system: DU-145 prostate
# [9] = test system: 786-0 renal
# [10] = test system: SNB-75 CNS
# [11] = test system: ACHN renal
# [12] = test system: HT29 colon
# [13] = test system: UO-31 renal
# [14] = test system: K-562 leukemia
# [15] = test system: NCI/ADR-RES ovarian
# [16] = test system: PC-3 prostate
# [17] = test system: HS 578T breast
# [18] = test system: NCI-H522 lung
# [19] = test system: A549 NSCLC
# [20] = test system: TK-10 renal
# [21] = test system: IGROV1 ovarian
# [22] = test system: HL-60(TB) leukemia
# [23] = test system: M14 melanoma
# [24] = test system: SF-539 CNS
# [25] = test system: COLO 205 colon
# [26] = test system: SW-620 colon
# [27] = test system: SF-268 CNS
# [28] = test system: EKVX NSCLC
smiles,measurement,setting,value
N#Cc1c(Br)n(C2OC(CO)C(O)C2O)c2ncn3ccnc3c12 (stereo not given),TGI,[1],> 100 µM
same,GI50,[2],> 100 µM
same,TGI,[2],> 100 µM
same,GI50,[3],> 100 µM
same,TGI,[3],> 100 µM
same,GI50,[4],52.3 µM
same,TGI,[4],> 100 µM
same,GI50,[5],> 100 µM
same,TGI,[5],> 100 µM
same,GI50,[6],> 100 µM
same,TGI,[6],> 100 µM
same,GI50,[7],> 100 µM
same,TGI,[7],> 100 µM
same,GI50,[8],69.5 µM
same,TGI,[8],> 100 µM
same,GI50,[9],> 100 µM
same,TGI,[9],> 100 µM
same,GI50,[10],> 100 µM
same,TGI,[10],> 100 µM
same,GI50,[11],57.6 µM
same,TGI,[11],> 100 µM
same,GI50,[12],65.3 µM
same,TGI,[12],> 100 µM
same,GI50,[13],53.6 µM
same,TGI,[13],> 100 µM
same,GI50,[14],62.4 µM
same,TGI,[14],> 100 µM
same,GI50,[15],> 100 µM
same,TGI,[15],> 100 µM
same,GI50,[16],63.8 µM
same,TGI,[16],> 100 µM
same,GI50,[17],> 100 µM
same,TGI,[17],> 100 µM
same,GI50,[18],> 100 µM
same,TGI,[18],> 100 µM
same,GI50,[19],> 100 µM
same,TGI,[19],> 100 µM
same,GI50,[20],> 100 µM
same,TGI,[20],> 100 µM
same,GI50,[21],81.9 µM
same,TGI,[21],> 100 µM
same,GI50,[22],> 100 µM
same,TGI,[22],> 100 µM
same,GI50,[23],> 100 µM
same,TGI,[23],> 100 µM
same,GI50,[24],> 100 µM
same,TGI,[24],> 100 µM
same,GI50,[25],55.1 µM
same,TGI,[25],> 100 µM
same,GI50,[26],44.1 µM
same,TGI,[26],> 100 µM
same,GI50,[27],58 µM
same,TGI,[27],> 100 µM
same,GI50,[28],> 100 µM
same,TGI,[28],> 100 µM
